US11467168B2, “Methods of identifying a moldulator of otopetrin-mediated proton translocation activity” (UNIVERSITY OF SOUTHERN CALIFORNIA, priority 2017, dated 2022)
Values joined by “and” are separate entries in the source; they are usually repeats but may differ in a detail not shown here. Equal entries are not always repeated.

Target: T1, Otop1 (Mus musculus, UniProt Q80VM9, G396A)
T1 construct: expressed in transfected cells; host or cells: HEK-293 cells (CRL-1573, ATCC), transient co-transfection with GFP, cDNA in pcDNA3
T1 sequence (Q80VM9 1-600 G396A): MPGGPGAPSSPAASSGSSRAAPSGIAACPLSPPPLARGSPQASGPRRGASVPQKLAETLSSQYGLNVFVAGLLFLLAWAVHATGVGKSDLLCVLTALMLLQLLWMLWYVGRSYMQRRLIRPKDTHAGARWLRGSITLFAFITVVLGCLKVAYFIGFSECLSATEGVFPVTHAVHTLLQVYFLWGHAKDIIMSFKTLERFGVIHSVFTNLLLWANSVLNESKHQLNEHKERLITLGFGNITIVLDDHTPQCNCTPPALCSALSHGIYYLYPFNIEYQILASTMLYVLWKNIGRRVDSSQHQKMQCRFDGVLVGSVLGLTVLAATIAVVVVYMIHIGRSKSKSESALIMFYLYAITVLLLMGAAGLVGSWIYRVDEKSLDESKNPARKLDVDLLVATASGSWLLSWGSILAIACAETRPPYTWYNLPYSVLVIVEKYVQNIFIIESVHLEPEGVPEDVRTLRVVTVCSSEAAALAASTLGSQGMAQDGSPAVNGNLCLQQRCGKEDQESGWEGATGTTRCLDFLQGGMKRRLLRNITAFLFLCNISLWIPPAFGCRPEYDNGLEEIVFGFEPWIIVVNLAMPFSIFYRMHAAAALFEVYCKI
Experiment: Zn2+ inhibition of Otop1 currents, whole-cell patch clamp in transfected HEK-293 cells
Assay type: cell-based
Conditions: Otop1-transfected HEK-293 cells, currents evoked by pH 5.5, Hill equation fit
Source text: The transition metal Zn^2+ is a potent inhibitor of Hv1, binding to two external histidine residues that regulate gating^7,31,32. […] To gain insights into structural elements involved in ion permeation by Otop1, we measured its sensitivity to inhibition by Zn^2+.
Otop and GFP (5:1) were co-transfected into HEK-293 cells (CRL-1573, ATCC) using TransIT-LT1 Transfection Reagent (Mirus Bio Corporation, Madison, Wis.). Patch clamp recording and imaging experiments on GFP-positive cells were performed at room temperature ˜24-48 h after transfection.
Whole-cell patch clamp recording was performed as previously described^49. In brief, recordings were made with an Axopatch 200A or Axopatch 200B amplifier, digitized with a Digidata 1322a 16-bit data acquisition system, acquired with pClamp 8.2, and analyzed with Clampfit 8.2 (Molecular Devices, Palo Alto, Calif.). Records were sampled at 5 kHz and filtered at 1 kHz. Patch pipettes with resistance of 2-4 MΩ were fabricated from borosilicate glass, and only recordings in which a gigaohm seal was achieved were used in the analysis. For most experiments, after the whole cell configuration was achieved, the membrane potential was held at −80 mV, or ramped from −80 mV to +80 mV (1V/s) once per second. […]

- Hill coefficient: 0.89 and 0.89±0.06
- IC50: 190 µM
SMILES: [Cl-].[Cl-].[Zn+2] [Zn^2+, ZnCl2]
